Where a name gives a salt, the structure may show the parent alone.
Biological target: T1, h-NK1 receptors (Homo sapiens, UniProt P25103)
T1 construct: expressed in transfected cells; host or cells: CHO cells (permanent expression), crude cell membranes
Test: Evaluation of NK1 antagonist transport efficiency to the central nervous system using a h-NK1 receptor binding assay
Conditions: 5 min, brain extract of male SD rats 5 min after i.v. injection of test compound, CHO cell membranes expressing h-NK1, read-out: inhibition rate of 125I-BH-Substance P binding to h-NK1 receptors
Experimental: A. Evaluation of NK1 Antagonist Transport Efficiency to the Cental Nervous System Using a h-NK1 Receptor Binding Assay
(1) Administration of Test Compound and Extraction of the Compound From Brain
Male SD rats were given an i.v. injection of a solution containing a test compound (1 mg/kg). 5 Min later the animals were anesthetized by ether, bled and perfused through the aorta ascendens with 20 ml of saline. The brain was rapidly removed, weighed and homogenized in 4 vol. ice-cold distilled water by using Polytoron (KINEMATICA). To extract the test compound, 500 μl of the homogenate, 100 μl of methanol, 500 μl of 0.1 N NaOH and 4 ml of ethyl acetate were mixed by shaking for 10 min at room temperature. The organic phase (2.5 ml) was recovered by centrifugation at 3,000 rpm for 10 min, dried and dissolved in dimethyl sulfoxide.
(2) h-NK1 Receptor Binding Assay
(a) Crude CHO Cell Membrane Preparation
CHO cells permanently expressing h-NK1 receptors were harvested and homogenized with a Dounce homogenizer at 4° C. in a buffer (0.25 M sucrose, 25 mM Tris-HCl (pH 7.4), 10 mM MgCl2, 1 mM EDTA, 5 μg/ml p-APMSF). The homogenate was centrifuged (500×g, 10 min), and the pellet was resuspended in the same buffer, homogenized, and centrifuged. The two supernatants were combined and centrifuged (100,000×g, 1 hour). The crude cell membranes thus isolated were resuspended in a buffer (25 MM Tris-HCl (pH 7.4), 10 mM MgCl2, 1 mM EDTA, 5 μg/ml p-APMSF) and stored at −80° C. until use.
(b) ^125I-BH-Substance P Binding to the Prepared Membrane
Cell membranes (6 μg/ml) were incubated with ^125I-BH-Substance P (0.1 nM) with or without the extracted compounds in 0.25 ml of a medium (50 mM Tris-HCl (pH 7.4), 5 mM MnCl2, 20 μg/ml chymrostatin, 40 μg/ml bacitracin, 4 μg/ml leupeptin, 5 μg/ml p-APMSF, 200 μg/ml BSA) at 22° C. for 90 min. At the end of the incubation period, the contents were quickly filtered through a Blue Mat 11740 filter (pretreated with 0.1% polyethylenimine for 3 hours prior to use) by using SKATRON Cell Harvester. The filter was then washed with a washing buffer (50 mM Tris-HCl (pH 7.4), 5 mM MnCl2) . The radioactivity was counted by using an auto gamma counter (Packard RIASTAR 5420A). All data presented are specific binding defined as that displaceable by 3 μM unlabeled Substance P.

T1 sequence (P25103 whole entry): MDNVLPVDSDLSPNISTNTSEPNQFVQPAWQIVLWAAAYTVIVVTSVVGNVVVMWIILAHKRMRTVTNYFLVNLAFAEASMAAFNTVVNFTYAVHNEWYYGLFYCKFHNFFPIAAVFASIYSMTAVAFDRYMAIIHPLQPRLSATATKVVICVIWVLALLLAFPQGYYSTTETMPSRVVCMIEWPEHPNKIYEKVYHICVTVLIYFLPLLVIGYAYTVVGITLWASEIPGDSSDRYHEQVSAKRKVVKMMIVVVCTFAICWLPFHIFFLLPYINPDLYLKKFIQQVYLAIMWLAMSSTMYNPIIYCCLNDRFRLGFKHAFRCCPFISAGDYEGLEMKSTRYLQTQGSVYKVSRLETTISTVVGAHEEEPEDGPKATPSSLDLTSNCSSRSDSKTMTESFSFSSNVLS

Inhibition at 1 mg/kg, > 80%:
Cc1ccc(C[C@@H]2CN(Cc3cn(C)cn3)CCN2C(=O)c2cc(C(F)(F)F)cc(C(F)(F)F)c2)cc1C [52-(1), (2R)-1-[3,5-Bis(trifluoromethyl)benzoyl]-2-(3,4-dimethylbenzyl)-4-[(1-methyl-1H-imidazol-4-yl)methyl]piperazine dihydrochloride]
O=C(c1cc(C(F)(F)F)cc(C(F)(F)F)c1)N1CCN(CCCN2CCC(c3ccccc3)CC2)C[C@H]1Cc1c[nH]c2ccccc12 [Example 46, (2R)-1-[3,5-bis(trifluoromethyl)benzoyl]-2-(1H-indol-3-ylmethyl)-4-[3-(4-phenylpiperidino)propyl]piperazine]
O=C(c1cc(C(F)(F)F)cc(C(F)(F)F)c1)N1CCN(CC#CCN2CCOCC2)C[C@H]1Cc1ccc2ccccc2c1 [Example 35, (2R)-1-[3,5-bis(trifluoromethyl)benzoyl]-4-(4-morpholino-2-butynyl)-2-(2-naphthylmethyl) piperazine dihydrochloride]
O=C(c1cc(C(F)(F)F)cc(C(F)(F)F)c1)N1CCN(CCCNCc2cccnc2)C[C@H]1Cc1ccc2ccccc2c1 [82-(12), (2R)-1-[3,5-Bis(trifluoromethyl)benzoyl]-2-(2-naphthylmethyl)-4-[N-(3-pyridylmethyl)-3-aminopropyl]piperazine trihydrochloride]
O=C(c1cc(C(F)(F)F)cc(C(F)(F)F)c1)N1CCN(CCCCN2CCOCC2)C[C@H]1Cc1c[nH]c2ccccc12 [Example 73, (2R)-1-[3,5-bis(trifluoromethyl)benzoyl]-2-(1H-indol-3-ylmethyl)-4-(4-morpholinobutyl) piperazine dihydrochloride]
O=C(c1cc(C(F)(F)F)cc(C(F)(F)F)c1)N1CCN(C/C=C/CNCc2cccnc2)C[C@H]1Cc1ccc2ccccc2c1 [82-(10), (2R)-1-[3,5-Bis(trifluoromethyl)benzoyl]-2-(2-naphthylmethyl)-4-[(E)-N-(3-pyridylmethyl)-4-amino-2-butenyl]piperazine trihydrochloride]
Cc1ccc(C[C@@H]2CN(CCCN3CCCOCC3)CCN2C(=O)c2cc(C(F)(F)F)cc(C(F)(F)F)c2)cc1C [Example 67-(7), (2R)-1-[3,5-Bis(trifluoromethyl)benzoyl]-2-(3,4-dimethylbenzyl)-4-(3-homomorpholinopropyl) piperazine dihydrochloride]
O=C(c1cc(C(F)(F)F)cc(C(F)(F)F)c1)N1CCN(CCNN2CCOCC2)C[C@H]1Cc1ccc2ccccc2c1 [82-(8), (2R)-1-[3,5-Bis(trifluoromethyl)benzoyl]-2-(2-naphthylmethyl)-4-(N-morpholino-2-aminoethyl) piperazine dihydrochloride]
Cc1ccc(C[C@@H]2CN(CCCNCc3cccnc3)CCN2C(=O)c2cc(C(F)(F)F)cc(C(F)(F)F)c2)cc1C [82-(1), (2R)-1-[3,5-Bis(trifluoromethyl)benzoyl]-2-(3,4-dimethylbenzyl)-4-[N-(3-pyridylmethyl)-3-aminopropyl]piperazine trihydrochloride]
Cc1ccc(C[C@@H]2CN(C/C=C/CNCc3cccnc3)CCN2C(=O)c2cc(C(F)(F)F)cc(C(F)(F)F)c2)cc1C [82-(5), (2R)-1-[3,5-Bis(trifluoromethyl)benzoyl]-2-(3,4-dimethylbenzyl)-4-[(E)-N-(3-pyridylmethyl)-4-amino-2-butenyl]piperazine trihydrochloride]
O=C(c1cc(C(F)(F)F)cc(C(F)(F)F)c1)N1CCN(CCCN2CCSC2)C[C@H]1Cc1c[nH]c2ccccc12 [Example 44-(7), (2R)-4-[3-(Thiazolidin-3-yl)propyl]-1-[3,5-bis (trifluoromethyl)benzoyl]-2-(1H-indol-3-ylmethyl) piperazine dihydrochloride]
Cc1ccc(C[C@@H]2CN(CCN3CCCOCC3)CCN2C(=O)c2cc(C(F)(F)F)cc(C(F)(F)F)c2)cc1C [Example 67-(6), (2R)-1-[3,5-Bis(trifluoromethyl)benzoyl]-2-(3,4-dimethylbenzyl)-4-(2-homomorpholinoethyl) piperazine dihydrochloride]
Cc1ccc(C[C@@H]2CN(CCCNN3CCOCC3)CCN2C(=O)c2cc(C(F)(F)F)cc(C(F)(F)F)c2)cc1C [67-(4), (2R)-1-[3,5-Bis(trifluoromethyl)benzoyl]-2-(3,4-dimethylbenzyl)-4-[3-(morpholinoamino)propyl]piperazine dihydrochloride]
O=C(c1cc(C(F)(F)F)cc(C(F)(F)F)c1)N1CCN(CCN2CCSCC2)C[C@H]1Cc1ccc2ccccc2c1 [Example 44-(2), (2R)-1-[3,5-Bis(trifluoromethyl)benzoyl]-2-(2-naphthylmethyl)-4-(2-thiomorpholinoethyl) piperazine dihydrochloride]
Cc1ccc(C[C@@H]2CN(CCCN3C[C@@H](C)O[C@@H](C)C3)CCN2C(=O)c2cc(C(F)(F)F)cc(C(F)(F)F)c2)cc1C [Example 81, (2R)-1-[3,5-Bis(trifluoromethyl)benzoyl]-2-(3,4-dimethylbenzyl)-4-[3-(cis-2,6-dimethylmorpholino)propyl]piperazine dihydrochloride]
O=C(c1cc(C(F)(F)F)cc(C(F)(F)F)c1)N1CCN(CCCN2CCSCC2)C[C@H]1Cc1ccc(Cl)c(Cl)c1 [Example 44-(4), (2R)-1-[3,5-Bis(trifluoromethyl)benzoyl]-2-(3,4-dichlorobenzyl) -4-(3-thiomorpholinopropyl) piperazine dihydrochloride]
O=C(c1cc(C(F)(F)F)cc(C(F)(F)F)c1)N1CCN(CCCN2CCOCC2)C[C@H]1Cc1ccc(Cl)c(Cl)c1 [Example 44-(5), (2R)-1-[3,5-Bis(trifluoromethyl)benzoyl]-2-(3,4-dichlorobenzyl)-4-(3-morpholinopropyl) piperazine dihydrochloride]
CC(=O)c1ccc(C(=O)N2CCN(C(=O)c3cc(C(F)(F)F)cc(C(F)(F)F)c3)[C@H](Cc3ccc(C)c(C)c3)C2)cc1 [Example 11, (2R)-4-(4-acetylbenzoyl)-1-[3,5-bis (trifluoromethyl)benzoyl]-2-(3,4-dimethylbenzyl)piperazine]
O=C(c1cc(C(F)(F)F)cc(C(F)(F)F)c1)N1CCN(CCCN2CCc3sccc3C2)C[C@H]1Cc1c[nH]c2ccccc12 [Example 26, (2R)-1-[3,5-Bis(trifluoromethyl)benzoyl]-2-(1H-indol-3-ylmethyl)-4-[3-(4,5,6,7-tetrahydrothieno[3,2-c]pyridin-5-yl)propyl]piperazine]
O=C(c1cc(C(F)(F)F)cc(C(F)(F)F)c1)N1CCN(CC#CCN2CCOCC2)C[C@H]1Cc1ccc(Cl)c(Cl)c1 [Example 36, (2R)-1-[3,5-bis(trifluoromethyl)benzoyl]-2-(3,4-dichlorobenzyl)-4-(4-morpholino-2-butynyl) piperazine]
Cc1ccc(C[C@@H]2CN(CCNCc3cccnc3)CCN2C(=O)c2cc(C(F)(F)F)cc(C(F)(F)F)c2)cc1C [Example 67-(5), (2R)-1-[3,5-Bis(trifluoromethyl)benzoyl]-2-(3,4-dimethylbenzyl)-4-[2-(3-pyridylmethylamino)ethyl]piperazine trihydrochloride]

From patent publication US20020010182A1, “Piperazine derivatives as tachykinin antagonists” (FUJISAWA PHARMACEUTICAL CO., LTD., priority 1995, published 2002)
